Molecular target: 5-hydroxytryptamine receptor 1A (Sus scrofa)
Experiment: Compound was tested in vitro for its ability to compete with [3H]8-OH-DPAT at 5-hydroxytryptamine 1A receptor in porcine brain homogenate

Ki: 2.2 µM
SMILES: N#Cc1cccc2c(CN3CCN(c4ccc(Cl)cc4)CC3)cnn12 [3-[4-(4-Chloro-phenyl)-piperazin-1-ylmethyl]-pyrazolo[1,5-a]pyridine-7-carbonitrile]

— BindingDB's records for doi:10.1016/s0960-894x(01)00814-9 (Friedrich-Alexander University, 2002)
